Laboratory results taken from patent US20250017979A1, “METHODS AND COMPOSITIONS FOR IMPROVING IN VIVO SURVIVAL OF MIDBRAIN DOPAMINE NEURONS” (MEMORIAL SLOAN-KETTERING CANCER CENTER, priority 2022, published 2025).

Tests used:
rodent GSK3β homologs = conditions: cited from earlier work
[1] = test system: amphetamine-induced rotation behaviors; assay: D-amphetamine induced rotation assay in unilateral 6-OHDA lesioned PD mouse model after grafting; type: in vivo, NSG mice
Procedure: (§1) 6-OHDA mouse model. Briefly, adult female and male NSG mice (6-12 weeks) were anesthetized with 1%-2% isoflurane mixed in oxygen. 1 μL 6-OHDA (3 mg/ml, in saline with 1% ascorbic acid) was directly injected into the right side of substantial nigra (anterior-posterior [AP]=−2.9 mm, lateral [ML]=1.1 mm, vertical [DV]=4.5 mm, from dura) with rate of 0.5-1 μL per minute to generate unilateral toxin Parkinsonian mouse model. Animals with amphetamine-induced rotation at >6 rotations per min were selected for cell transplantation 4 weeks after 6-OHDA-lesion surgery. Animals were randomly grouped and transplanted with CD sorted neurons vs. CD sorted neurons+adalimumab vs. PBS (sham surgery control).
d-amphetamine induced rotation behavior assays. Amphetamine-induced rotation tests were performed twice before transplantation, and 1, 2, 3, 4, 5, 6 months after transplantation. The mice were injected intraperitoneally with a d-amphetamine in saline (Sigma, 10 mg/kg). After 10 minutes, the rotation

[2] = test system: CD marker sorted dopamine neurons; assay: Histology and stereology of dopamine neuron grafts at 6 months in 6-OHDA mice; type: in vivo, NSG mice
Procedure: as §1
Immunohistochemistry. Histology on tissues from mice was performed on frozen sections from xenografts. Mice were anesthetized with pentobarbital and transcardically perfused using heparinized (10 U/mL) PBS (pH 7.4), followed by 4% paraformaldehyde in PBS. The liquid is administered using peristaltic pump to control the rate of the solution delivery to the system. Tissues were post-fixed in ice cold 4% paraformaldehyde for 18 hours sharp and transferred to 30% sucrose until the tissue sink (typically 3-6 days post-), followed by snap freezing in O.C.T (Fisher Scientific, Pittsburgh, PA) or Neg-50 (Thermo Scientific). Brain tissues are all sectioned in 30 μm thick coronal sections using a cryostat and mounted onto a Superfrost plus microscope slides (Fisher Scientific). All the slides are stored at −80° C. for long-term until use. To process for immunolabeling, tissues are washed twice with 1×PBS, followed by permeabilization in 0.5% Triton X-100 in PBS for 10 minutes. Living cells in culture were directly fixed in 4% paraformaldehyde for 18 min, followed by 10 min permeabilization in 0.5% Triton X-100 in PBS. For labeling, cells or tissue sections were immunostained with primary antibodies of interest in 2% BSA in 0.25% Triton X-100 in PBS at 4° C. overnight. Next day appropriate Alexa Fluor secondary antibodies are conjugated at room temperature for 1 hr at a dilution of 1:1,000. Nuclei were counterstained by DAPI.
Stereological analysis. For short-term survival studies, unbiased stercological counts of NURR1::H2B-GFP DA neurons within the striatum (AP+0.5, ML+/−1.8, DV −3.4 to −3.3 from dura) were performed using stereological principles and analyzed with StereoInvestigator software (Microbrightfield, Williston, VT, USA), as previously described. […] For each tissue section analyzed, section thickness was assessed in each sampling site and guard zones of 1 μm were used at the top and bottom of each section. […] For analysis, at least 2-8 sections were evaluated for analysis. […]

[3] = test system: NURR1::H2B-GFP sorted neurons; assay: TNFα / adalimumab treatment of day 25 NURR1::H2B-GFP sorted dopamine neurons in vitro (immunofluorescence, western blot, qRT-PCR); type: cell-based, human; conditions: co-treatment with TNFα and adalimumab (10 μg/ml), 24 hours
Procedure: hESC differentiation toward DA neurons. Midbrain dopaminergic neuron differentiation was performed using H9 hESCs, which include Nurr1::GFP. hESCs were grown on VTN-N (Thermo Fisher Scientific)-coated 6-well plates in E8-essential medium. Cells were maintained at 37° C., 5% CO2. hESCs were differentiated with an optimized protocol from a previously reported study (Kim et al., 2021, Cell Stem Cell February 4; 28 (2): 343-355.c5; Riessland et al., 2019, Cell Stem Cell. October 3; 25 (4): 514-530.c8). At day 25 of differentiation from hPSCs iCas9/NURR1::GFP hPSC lines containing sgRNA-pool libraries and sgRNA for dTomato and p53 hPSCs, GFP and dTomato expressed dopamine neurons were sorted using flow cytometry associated cell sorting (FACS). […] TNF-α neutralizing antibody was employed either to co-injection (1 mg/ml) or in vitro cultured dopamine neuron (10 μg/ml).

[4] = test system: CD marker sorted dopamine neurons; assay: 1-month survival of CD49e-low/CD184-high sorted dopamine neuron grafts in striatum of NSG mice, co-injection, stereology; type: in vivo
Procedure: hESC differentiation toward DA neurons. Midbrain dopaminergic neuron differentiation was performed using H9 hESCs, which include Nurr1::GFP. hESCs were grown on VTN-N (Thermo Fisher Scientific)-coated 6-well plates in E8-essential medium. Cells were maintained at 37° C., 5% CO2. hESCs were differentiated with an optimized protocol from a previously reported study (Kim et al., 2021, Cell Stem Cell February 4; 28 (2): 343-355.c5; Riessland et al., 2019, Cell Stem Cell. October 3; 25 (4): 514-530.c8). At day 25 of differentiation from hPSCs iCas9/NURR1::GFP hPSC lines containing sgRNA-pool libraries and sgRNA for dTomato and p53 hPSCs, GFP and dTomato expressed dopamine neurons were sorted using flow cytometry associated cell sorting (FACS). The sorted hPSCs were either injected into mice or cultured for subsequent experiments until use. Furthermore, double sorting approach with CD49e-low and CD184-high was applied to enrich post-mitotic dopamine neuron at day 25 differentiation derived from hPSC using FACS, and sorted cells were used for transplantation and in vitro culture. TNF-α neutralizing antibody was employed either to co-injection (1 mg/ml) or in vitro cultured dopamine neuron (10 μg/ml).
Intracranial transplantation. hESCs-derived DA neurons that were sorted based on either NURR1::H2B-GFP or CD49e low and CD184 high were resuspended in 100,000+ cells/μL in neurobasal medium with 200 mM L-glutamine and 100 mM ascorbic acid (AA) transplantation medium (without human albumin or kedbumin 25%). […]
Stereological analysis. For short-term survival studies, unbiased stercological counts of NURR1::H2B-GFP DA neurons within the striatum (AP+0.5, ML+/−1.8, DV −3.4 to −3.3 from dura) were performed using stereological principles and analyzed with StereoInvestigator software (Microbrightfield, Williston, VT, USA), as previously described. […] For each tissue section analyzed, section thickness was assessed in each sampling site and guard zones of 1 μm were used at the top and bottom of each section. […]

[5] = 6 months old graft, TH+ population
[6] = 6 months post transplantation, vs PBS co-injection

Molecule | IC50 values against rodent GSK3β homologs (rodent GSK3β homologs) | functional recovery of amphetamine-induced rotation ([1]; 6 months post grafting, CD sorted neurons with or without adalimumab) | time course and completeness of functional rescue vs CD sorted neurons alone ([1]; adalimumab co-injected mDA neurons, 1-6 months) | fraction of CALB1 expressing A10 dopamine neuron subtype [2, 5] | proportion of ALDH1A1+ A9 mDA neuron subtype [2, 5] | overall graft size [2, 6] | total numbers of surviving dopamine neurons (TH) [2, 6] | TNFα-induced inductions of p53 and p53 downstream genes (p21, PUMA) [3] | Stereological counts of NURR1::GFP+ cells ([4]; 1 month post grafting, mean and S.E.M, n=5, p=0.01 vs PBS) | volume of the graft ([4]; 1 month post grafting, per 100,000 cells, mean, n=5, p=0.0085) | survival of CD marker sorted dopamine neurons in vivo post-transplantation ([4]; co-injection (1 mg/ml), vs PBS)
Cc1c[nH]c(-c2cnc(NCCNc3ccc(C#N)cn3)nc2-c2ccc(Cl)cc2Cl)n1 [CHIR99021, 6-(2-(4-(2,4-dichlorophenyl)-5-(4-methyl-1H-imidazol-2-yl)pyrimidin-2-ylamino)ethylamino) nicotinonitrile] | nanomolar | – | – | – | – | – | – | – | – | – | –
adalimumab | – | Robust functional recovery | trend towards an earlier and more complete functional rescue | without affecting | significant increase | significantly increased | significantly increased | abolished | 12,423 (mean)+1,859 (S.E.M) per 100,000 cells injected | 0.1175 mm^3 | significantly improved
